Experiments:
[1] = target: hERG (KCNH2) (Homo sapiens, UniProt Q12809); assay: Inhibition of human ERG channel at 10 uM
[2] = Intrinsic clearance in dog hepatocytes; assay type: ADME, cell-based, Canis lupus familiaris, Hepatocyte; settings: read-out: CLH
[3] = Intrinsic clearance in mouse hepatocytes; assay type: ADME, cell-based, Hepatocyte; settings: read-out: CLH
[4] = Intrinsic clearance in rat hepatocytes; assay type: ADME, cell-based, Hepatocyte; settings: read-out: CLH
[5] = Clearance in human hepatocytes; assay type: ADME, cell-based, Hepatocyte; settings: read-out: CLH
[6] = target: Serine/threonine-protein kinase pim-1 (Mus musculus) (UniProt P06803); assay: Inhibition of PIM1 in mouse BA/F3 cells assessed as phosphorylation of BAD at S112 after 24 hrs by Western blotting analysis; assay type: cell-based; settings: BaF3
[7] = Cytotoxicity against mouse BA/F3 cells after 72 hrs by CellTitre-Glo assay; assay type: cell-based; settings: BaF3, 72 h
[8] = Cytotoxicity against human KMS11 cells after 72 hrs by CellTitre-Glo assay; assay type: functional, cell-based; settings: KMS-11, 72 h
[9] = Apparent permeability from apical to basolateral side in human Caco2 cells after 120 mins by LC-MS/MS analysis; settings: Caco-2
[10] = Intrinsic clearance in human liver microsomes after 5 mins by LC-MS/MS analysis; assay type: ADME; settings: read-out: CLH
[11] = target: Vascular endothelial growth factor receptor 3 (Homo sapiens, UniProt P35916); assay: Inhibition of VGFR3 (unknown origin)
Sequence of Vascular endothelial growth factor receptor 3 (P35916 whole entry): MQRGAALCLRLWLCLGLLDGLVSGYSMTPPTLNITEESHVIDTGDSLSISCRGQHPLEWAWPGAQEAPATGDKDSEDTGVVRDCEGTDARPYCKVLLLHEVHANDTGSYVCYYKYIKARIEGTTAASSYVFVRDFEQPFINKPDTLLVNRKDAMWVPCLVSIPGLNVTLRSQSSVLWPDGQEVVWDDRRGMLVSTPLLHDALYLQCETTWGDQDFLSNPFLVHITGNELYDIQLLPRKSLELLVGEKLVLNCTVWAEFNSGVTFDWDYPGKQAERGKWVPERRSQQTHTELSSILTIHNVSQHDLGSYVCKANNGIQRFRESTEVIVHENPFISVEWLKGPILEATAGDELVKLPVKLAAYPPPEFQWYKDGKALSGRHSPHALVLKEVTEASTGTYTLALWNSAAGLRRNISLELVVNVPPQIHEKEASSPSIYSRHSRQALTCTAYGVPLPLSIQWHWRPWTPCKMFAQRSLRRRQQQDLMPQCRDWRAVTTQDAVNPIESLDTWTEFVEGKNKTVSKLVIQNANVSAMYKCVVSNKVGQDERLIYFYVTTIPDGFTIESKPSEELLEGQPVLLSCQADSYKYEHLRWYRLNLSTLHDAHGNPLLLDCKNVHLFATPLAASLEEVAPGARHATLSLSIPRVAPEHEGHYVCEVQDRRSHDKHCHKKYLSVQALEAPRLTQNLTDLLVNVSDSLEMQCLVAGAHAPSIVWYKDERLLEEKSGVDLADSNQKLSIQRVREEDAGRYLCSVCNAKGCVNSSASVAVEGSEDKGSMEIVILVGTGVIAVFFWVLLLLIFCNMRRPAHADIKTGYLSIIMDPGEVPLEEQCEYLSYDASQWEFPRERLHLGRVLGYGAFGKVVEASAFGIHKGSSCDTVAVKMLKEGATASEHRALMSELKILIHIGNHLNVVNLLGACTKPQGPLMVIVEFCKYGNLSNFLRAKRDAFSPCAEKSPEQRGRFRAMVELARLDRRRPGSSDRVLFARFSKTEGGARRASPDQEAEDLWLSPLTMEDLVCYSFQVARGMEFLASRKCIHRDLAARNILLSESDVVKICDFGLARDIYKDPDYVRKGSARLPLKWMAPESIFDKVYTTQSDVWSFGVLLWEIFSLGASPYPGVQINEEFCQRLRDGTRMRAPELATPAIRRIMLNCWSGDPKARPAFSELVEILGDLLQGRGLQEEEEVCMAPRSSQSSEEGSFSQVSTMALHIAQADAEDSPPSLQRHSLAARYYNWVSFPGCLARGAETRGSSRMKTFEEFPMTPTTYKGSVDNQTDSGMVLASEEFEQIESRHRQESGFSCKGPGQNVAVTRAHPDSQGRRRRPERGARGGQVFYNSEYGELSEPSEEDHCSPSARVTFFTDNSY

[12] = target: Tyrosine-protein kinase ZAP-70 (Homo sapiens, UniProt P43403); assay: Inhibition of ZAP70 (unknown origin)
[13] = target: High affinity nerve growth factor receptor (Homo sapiens, UniProt P04629); assay: Inhibition of TRKA (unknown origin)
Sequence of High affinity nerve growth factor receptor (P04629 whole entry): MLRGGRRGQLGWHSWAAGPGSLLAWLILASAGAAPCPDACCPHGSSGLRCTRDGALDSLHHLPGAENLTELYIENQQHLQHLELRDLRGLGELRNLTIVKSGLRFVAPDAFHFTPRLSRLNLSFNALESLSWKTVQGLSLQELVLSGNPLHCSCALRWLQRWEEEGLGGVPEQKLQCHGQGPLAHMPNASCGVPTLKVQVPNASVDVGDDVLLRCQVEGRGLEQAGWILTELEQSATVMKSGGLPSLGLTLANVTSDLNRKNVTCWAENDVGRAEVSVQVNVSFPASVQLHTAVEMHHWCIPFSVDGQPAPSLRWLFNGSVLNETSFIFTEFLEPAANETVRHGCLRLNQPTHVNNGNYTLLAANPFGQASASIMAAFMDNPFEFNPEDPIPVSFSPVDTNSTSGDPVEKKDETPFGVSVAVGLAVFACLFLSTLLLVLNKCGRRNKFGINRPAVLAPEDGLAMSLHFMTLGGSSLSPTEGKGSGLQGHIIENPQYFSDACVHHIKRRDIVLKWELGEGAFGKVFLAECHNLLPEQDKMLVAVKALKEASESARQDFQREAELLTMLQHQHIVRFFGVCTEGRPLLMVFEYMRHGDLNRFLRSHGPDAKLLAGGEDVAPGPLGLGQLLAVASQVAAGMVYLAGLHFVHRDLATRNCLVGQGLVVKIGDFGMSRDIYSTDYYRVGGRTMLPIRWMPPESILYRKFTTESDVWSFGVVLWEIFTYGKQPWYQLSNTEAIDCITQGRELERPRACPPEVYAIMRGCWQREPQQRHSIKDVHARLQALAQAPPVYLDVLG

[14] = target: Proto-oncogene tyrosine-protein kinase receptor Ret (Homo sapiens, UniProt P07949); assay: Inhibition of RET (unknown origin)
[15] = Inhibition of SULU1 (unknown origin); design: species or system Homo sapiens
[16] = target: Protein kinase C beta type (Homo sapiens, UniProt P05771); assay: Inhibition of PKC-beta (unknown origin)
[17] = target: Serine/threonine-protein kinase PLK1 (Homo sapiens, UniProt P53350); assay: Inhibition of PLK1 (unknown origin)
[18] = target: Eukaryotic translation initiation factor 2-alpha kinase 3 (Homo sapiens, UniProt Q9NZJ5); assay: Inhibition of PERK (unknown origin)
[19] = target: Platelet-derived growth factor receptor (Homo sapiens, UniProt P09619+P16234); assay: Inhibition of PDGFR (unknown origin); assay type: protein-complex assay
[20] = target: Serine/threonine-protein kinase NIM1 (Homo sapiens, UniProt Q8IY84); assay: Inhibition of NIM1 (unknown origin)
[21] = target: Serine/threonine-protein kinase 26 (Homo sapiens, UniProt Q9P289); assay: Inhibition of MST4 (unknown origin)
[22] = target: MAP kinase-activated protein kinase 2 (Homo sapiens, UniProt P49137); assay: Inhibition of MAPKAPK2 (unknown origin)
[23] = target: Tyrosine-protein kinase Lyn (Homo sapiens, UniProt P07948); assay: Inhibition of LYN (unknown origin)
[24] = target: Insulin receptor (Homo sapiens, UniProt P06213); assay: Inhibition of IR (unknown origin)
[25] = target: Tyrosine-protein kinase JAK1 (Homo sapiens, UniProt P23458); assay: Inhibition of JAK1 (unknown origin)
Sequence of Tyrosine-protein kinase JAK1 (P23458 whole entry): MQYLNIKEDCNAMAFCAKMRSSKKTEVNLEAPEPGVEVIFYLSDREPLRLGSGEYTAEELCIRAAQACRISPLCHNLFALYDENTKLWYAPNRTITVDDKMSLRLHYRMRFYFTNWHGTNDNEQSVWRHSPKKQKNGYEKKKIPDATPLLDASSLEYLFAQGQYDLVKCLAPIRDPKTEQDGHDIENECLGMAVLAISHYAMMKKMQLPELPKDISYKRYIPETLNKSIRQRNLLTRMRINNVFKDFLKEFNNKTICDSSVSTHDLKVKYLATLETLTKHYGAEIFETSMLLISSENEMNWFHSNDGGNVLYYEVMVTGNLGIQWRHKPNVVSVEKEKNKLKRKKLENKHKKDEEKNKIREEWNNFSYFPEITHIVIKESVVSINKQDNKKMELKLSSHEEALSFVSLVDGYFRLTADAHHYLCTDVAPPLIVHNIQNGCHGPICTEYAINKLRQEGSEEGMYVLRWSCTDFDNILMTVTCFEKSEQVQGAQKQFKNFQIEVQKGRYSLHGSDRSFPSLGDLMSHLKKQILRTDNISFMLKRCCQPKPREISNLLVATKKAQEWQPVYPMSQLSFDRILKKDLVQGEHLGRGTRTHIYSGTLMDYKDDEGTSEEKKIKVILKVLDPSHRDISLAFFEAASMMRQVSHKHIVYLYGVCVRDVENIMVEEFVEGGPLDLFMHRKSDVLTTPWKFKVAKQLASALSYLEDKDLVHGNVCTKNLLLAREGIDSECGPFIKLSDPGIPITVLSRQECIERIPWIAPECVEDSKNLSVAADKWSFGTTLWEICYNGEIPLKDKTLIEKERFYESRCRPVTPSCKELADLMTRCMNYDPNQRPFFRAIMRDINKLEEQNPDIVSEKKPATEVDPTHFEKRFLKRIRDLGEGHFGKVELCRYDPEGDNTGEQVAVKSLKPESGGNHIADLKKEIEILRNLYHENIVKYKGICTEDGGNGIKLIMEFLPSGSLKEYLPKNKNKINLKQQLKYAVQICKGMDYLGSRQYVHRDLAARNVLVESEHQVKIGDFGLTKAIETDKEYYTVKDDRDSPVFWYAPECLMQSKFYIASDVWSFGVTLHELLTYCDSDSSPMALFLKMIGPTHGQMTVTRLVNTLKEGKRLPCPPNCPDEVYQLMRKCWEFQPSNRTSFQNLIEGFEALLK

[26] = target: Fibroblast growth factor receptor 1 (Homo sapiens, UniProt P11362); assay: Inhibition of FGFR1 (unknown origin)
[27] = target: Casein kinase II (Homo sapiens, UniProt P19784+P67870+P68400); assay: Inhibition of CK2 (unknown origin); assay type: protein-complex assay
[28] = target: Serine/threonine-protein kinase Chk1 (Homo sapiens, UniProt O14757); assay: Inhibition of CHK1 (unknown origin)
[29] = Inhibition of CDK2/CYCA (unknown origin); design: species or system Homo sapiens
[30] = target: Protein-tyrosine kinase 6 (Homo sapiens, UniProt Q13882); assay: Inhibition of BRK (unknown origin)
Sequence of Protein-tyrosine kinase 6 (Q13882 whole entry): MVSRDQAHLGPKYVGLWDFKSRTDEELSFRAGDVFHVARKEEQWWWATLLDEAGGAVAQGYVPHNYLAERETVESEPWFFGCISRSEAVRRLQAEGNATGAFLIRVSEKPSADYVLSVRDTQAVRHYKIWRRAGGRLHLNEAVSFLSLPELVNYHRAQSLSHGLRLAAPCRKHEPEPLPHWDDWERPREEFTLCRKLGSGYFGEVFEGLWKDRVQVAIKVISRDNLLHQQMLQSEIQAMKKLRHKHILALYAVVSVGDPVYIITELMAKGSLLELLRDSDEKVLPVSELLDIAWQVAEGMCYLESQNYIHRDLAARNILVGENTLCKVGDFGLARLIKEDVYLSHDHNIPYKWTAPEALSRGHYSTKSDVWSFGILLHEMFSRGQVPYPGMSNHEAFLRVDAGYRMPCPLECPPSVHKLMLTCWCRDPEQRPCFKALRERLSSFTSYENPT

[31] = target: CDC7/DBF4 (Cell division cycle 7-related protein kinase/Activator of S phase kinase) (Homo sapiens, UniProt O00311); assay: Inhibition of CDC7/DBF4 (unknown origin); assay type: protein-complex assay
Sequence of CDC7/DBF4 (Cell division cycle 7-related protein kinase/Activator of S phase kinase) (Q9UBU7 whole entry): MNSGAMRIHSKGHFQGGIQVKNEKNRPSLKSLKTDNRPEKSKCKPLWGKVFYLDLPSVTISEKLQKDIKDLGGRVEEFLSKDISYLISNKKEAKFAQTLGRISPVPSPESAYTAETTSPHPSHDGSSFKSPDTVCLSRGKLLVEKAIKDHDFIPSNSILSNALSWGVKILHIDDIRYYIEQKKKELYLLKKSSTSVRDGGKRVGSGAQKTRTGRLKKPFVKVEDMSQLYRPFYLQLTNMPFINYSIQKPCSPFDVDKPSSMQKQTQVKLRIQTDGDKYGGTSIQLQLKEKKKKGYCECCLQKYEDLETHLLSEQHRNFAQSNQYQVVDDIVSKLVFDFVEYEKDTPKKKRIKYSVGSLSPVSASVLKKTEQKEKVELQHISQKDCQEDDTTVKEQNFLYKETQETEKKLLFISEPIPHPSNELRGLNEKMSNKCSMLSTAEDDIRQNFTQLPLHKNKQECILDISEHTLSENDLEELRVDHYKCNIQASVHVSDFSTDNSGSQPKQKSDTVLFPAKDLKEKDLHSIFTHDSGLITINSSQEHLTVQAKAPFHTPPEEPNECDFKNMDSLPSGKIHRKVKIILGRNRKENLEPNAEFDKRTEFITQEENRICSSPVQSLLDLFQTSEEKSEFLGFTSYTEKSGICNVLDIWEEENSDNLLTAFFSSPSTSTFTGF
Sequence of CDC7/DBF4 (Cell division cycle 7-related protein kinase/Activator of S phase kinase) (O00311 whole entry): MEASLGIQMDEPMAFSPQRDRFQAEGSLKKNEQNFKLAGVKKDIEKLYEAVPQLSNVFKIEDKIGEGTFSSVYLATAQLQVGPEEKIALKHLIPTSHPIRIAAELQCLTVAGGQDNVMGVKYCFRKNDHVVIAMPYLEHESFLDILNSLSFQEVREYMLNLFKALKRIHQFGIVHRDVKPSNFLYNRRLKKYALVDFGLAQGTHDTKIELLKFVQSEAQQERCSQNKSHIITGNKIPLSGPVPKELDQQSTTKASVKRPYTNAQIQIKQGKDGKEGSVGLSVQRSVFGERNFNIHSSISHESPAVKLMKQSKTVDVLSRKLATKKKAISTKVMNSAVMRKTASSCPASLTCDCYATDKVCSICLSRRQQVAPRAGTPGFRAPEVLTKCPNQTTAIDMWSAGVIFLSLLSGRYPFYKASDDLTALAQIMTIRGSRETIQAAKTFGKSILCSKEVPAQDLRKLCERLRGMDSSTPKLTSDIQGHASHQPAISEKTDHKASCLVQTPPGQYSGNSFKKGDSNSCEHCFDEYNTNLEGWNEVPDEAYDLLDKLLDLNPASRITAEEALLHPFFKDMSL

[32] = target: Aurora kinase A (Homo sapiens, UniProt O14965); assay: Inhibition of aurora kinase 1 (unknown origin)
[33] = target: RAC-alpha serine/threonine-protein kinase (Homo sapiens, UniProt P31749); assay: Inhibition of AKT1 (unknown origin)
[34] = target: Serine/threonine-protein kinase pim-1 (Homo sapiens, UniProt P11309); assay: Inhibition of human PIM1 using ARK-RERTYSFGHHA as substrate incubated for 60 mins prior to substrate addition by topcount scintillation counting analysis in presence of [P33gamma]-ATP

CN1CCN(C[C@@H](NC(=O)C[C@H]2CNC(=O)c3cc(-c4cccc(Cl)c4)cn32)C2CCCCC2)CC1
21 mL/min/kg: CLint scaled [4]
8.4 ×10⁻⁶ cm/s: Papp A→B at 2 h [9]
active: inhibition [6] Dose-dependent effect
5.9 mL/min/kg: CLint scaled [5] | CLint scaled [10]
7.13 µM: IC50 [8]
11 mL/min/kg: CLint scaled [2]
16%: inhibition at 10 µM [1]
63 mL/min/kg: CLint scaled [3]
0.03 µM: IC50 [34]
> 10 µM: IC50 [7] | IC50 [11] | IC50 [12] | IC50 [13] | IC50 [14] | IC50 [15] | IC50 [16] | IC50 [17] | IC50 [18] | IC50 [19] | IC50 [20] | IC50 [21] | IC50 [22] | IC50 [23] | IC50 [24] | IC50 [25] | IC50 [26] | IC50 [27] | IC50 [28] | IC50 [29] | IC50 [30] | IC50 [31] | IC50 [32] | IC50 [33]

Source: ChEMBL document CHEMBL3297733, “Discovery and optimization of pyrrolo[1,2-a]pyrazinones leads to novel and selective inhibitors of PIM kinases” (Bioorg Med Chem, 2013)
